{"source": "ChEMBL document CHEMBL4390670", "about": "“4-Aryl Pyrrolidines as a Novel Class of Orally Efficacious Antimalarial Agents. Part 1: Evaluation of 4-Aryl- N-benzylpyrrolidine-3-carboxamides” (J Med Chem, 2019)", "key": {"[1]": {"experiment": "Half life in mouse liver microsomes at 1 uM measured after 30 mins in presence of NADPH by LC-MS/MS analysis", "type": "ADME, Microsome", "details": "microsomes, 0.5 h, 1 µM"}, "Plasmodium falciparum [2]": {"tested_on": "Plasmodium falciparum", "experiment": "microbe, parasite or virus in culture", "details": "3D7, 72 h", "description": "Antimalarial activity against chloroquine-sensitive Plasmodium falciparum 3D7 measured after 72 hrs by SYBR Green 1 dye based fluorescence assay"}, "Plasmodium chabaudi [3]": {"tested_on": "Plasmodium chabaudi", "experiment": "Antimalarial activity against chloroquine-resistant Plasmodium chabaudi ASCQ infected in NIH mouse assessed as inhibition of parasitemia at 30 mg/kg, po administered once daily for 4 days starting from 4 hrs post-infection and measured on day 4 by Peter's 4 day test relative to control", "type": "functional"}, "[4]": {"biological_target": "Voltage-gated inwardly rectifying potassium channel KCNH2 (Homo sapiens, UniProt Q12809)", "sequence (Q12809 whole entry)": "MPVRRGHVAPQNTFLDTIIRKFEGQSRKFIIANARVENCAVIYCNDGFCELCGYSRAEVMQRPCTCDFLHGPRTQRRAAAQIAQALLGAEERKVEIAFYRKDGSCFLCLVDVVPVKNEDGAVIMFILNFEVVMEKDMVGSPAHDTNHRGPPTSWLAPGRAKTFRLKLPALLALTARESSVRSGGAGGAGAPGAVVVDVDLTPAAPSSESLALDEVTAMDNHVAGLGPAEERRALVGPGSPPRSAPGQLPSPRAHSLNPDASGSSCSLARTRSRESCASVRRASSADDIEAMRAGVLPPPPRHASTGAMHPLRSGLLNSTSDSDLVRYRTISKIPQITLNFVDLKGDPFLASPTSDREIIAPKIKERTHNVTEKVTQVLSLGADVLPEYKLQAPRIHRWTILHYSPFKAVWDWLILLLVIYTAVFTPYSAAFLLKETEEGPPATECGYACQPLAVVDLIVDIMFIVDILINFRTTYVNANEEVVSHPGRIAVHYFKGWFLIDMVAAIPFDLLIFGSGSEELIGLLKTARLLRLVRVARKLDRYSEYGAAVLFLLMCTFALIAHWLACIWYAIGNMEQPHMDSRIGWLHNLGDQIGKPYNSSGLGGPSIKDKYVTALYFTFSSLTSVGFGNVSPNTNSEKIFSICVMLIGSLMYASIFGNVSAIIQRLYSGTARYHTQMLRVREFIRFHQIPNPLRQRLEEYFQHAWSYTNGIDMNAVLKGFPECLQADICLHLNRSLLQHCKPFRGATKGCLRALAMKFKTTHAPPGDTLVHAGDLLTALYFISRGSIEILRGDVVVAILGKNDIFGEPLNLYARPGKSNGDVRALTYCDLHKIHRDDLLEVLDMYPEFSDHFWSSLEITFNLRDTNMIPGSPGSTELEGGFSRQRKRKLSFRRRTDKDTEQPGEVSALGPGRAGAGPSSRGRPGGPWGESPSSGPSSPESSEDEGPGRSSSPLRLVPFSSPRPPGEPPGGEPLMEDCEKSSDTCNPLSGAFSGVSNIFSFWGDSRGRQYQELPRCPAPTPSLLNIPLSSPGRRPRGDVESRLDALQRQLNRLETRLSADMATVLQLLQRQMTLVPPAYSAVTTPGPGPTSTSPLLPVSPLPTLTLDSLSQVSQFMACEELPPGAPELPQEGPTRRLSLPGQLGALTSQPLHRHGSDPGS", "description": "Inhibition of Tracer Red binding to human ERG expressed in membranes by fluorescence polarization assay"}, "[5]": {"experiment": "Apparent clearance in mouse at 2 mg/kg, iv by LC-MS analysis", "type": "ADME, organism-based", "details": "in vivo, read-out: CL(app)"}, "Plasmodium chabaudi [6]": {"tested_on": "Plasmodium chabaudi", "experiment": "Antimalarial activity against chloroquine-resistant Plasmodium chabaudi ASCQ infected in NIH mouse assessed as inhibition of parasitemia at 10 mg/kg, po administered once daily for 4 days starting from 4 hrs post-infection and measured on day 4 by Peter's 4 day test relative to control", "type": "functional"}, "[7]": {"experiment": "Time at which plasma concentration stays above in-vitro antimalarial IC50 for chloroquine-sensitive Plasmodium falciparum 3D7 in NIH mouse infected with chloroquine-resistant Plasmodium chabaudi ASCQ at 30 mg/kg/day, po", "type": "ADME, organism-based", "details": "in vivo"}, "[8]": {"experiment": "Apparent volume of distribution in mouse at 2 mg/kg, iv by LC-MS analysis", "type": "ADME, organism-based", "details": "in vivo, read-out: Vz"}, "[9]": {"experiment": "Oral bioavailability in mouse at 5 mg/kg by LC-MS analysis", "details": "in vivo"}, "[10]": {"experiment": "Half life in mouse at 2 mg/kg, iv by LC-MS analysis", "type": "ADME, organism-based", "details": "in vivo"}, "Plasmodium chabaudi [11]": {"tested_on": "Plasmodium chabaudi", "experiment": "Antimalarial activity against chloroquine-resistant Plasmodium chabaudi ASCQ infected in NIH mouse assessed as inhibition of parasitemia at 3 mg/kg, po administered once daily for 4 days starting from 4 hrs post-infection and measured on day 4 by Peter's 4 day test relative to control", "type": "functional"}, "Plasmodium falciparum [12]": {"tested_on": "Plasmodium falciparum", "experiment": "Antimalarial activity against multidrug-resistant Plasmodium falciparum Dd2 measured after 72 hrs by SYBR Green 1 dye based fluorescence assay", "type": "functional, organism-based", "details": "Dd2, 72 h"}, "Plasmodium chabaudi [13]": {"tested_on": "Plasmodium chabaudi", "experiment": "Antimalarial activity against chloroquine-resistant Plasmodium chabaudi ASCQ infected in po dosed NIH mouse assessed as inhibition of parasitemia administered starting from 4 hrs post-infection by Peter's 4 day test", "type": "functional"}}}
{"smiles": "C[C@H](NC(=O)[C@H]1CNC[C@@H]1c1ccc(C(F)(F)F)cc1)c1ccc(N(C)C)cc1", "values": [{"measurement": "t1/2", "setting": "[1]", "value": 0.633, "unit": "h"}, {"measurement": "IC50", "setting": "Plasmodium falciparum [2]", "value": "46 to 51", "unit": "nM"}, {"measurement": "inhibition in vivo at 30 mg/kg", "setting": "Plasmodium chabaudi [3]", "value": 98.7, "unit": "%"}, {"measurement": "IC50", "setting": "[4]", "value": 32000, "unit": "nM"}, {"measurement": "clearance", "setting": "[5]", "value": 3.3, "unit": "mL/min/kg"}, {"measurement": "inhibition in vivo at 10 mg/kg", "setting": "Plasmodium chabaudi [6]", "value": 75.2, "unit": "%"}, {"measurement": "Time", "setting": "[7]", "value": 24, "unit": "h"}, {"measurement": "Vd", "setting": "[8]", "value": 1.3, "unit": "L/kg"}, {"measurement": "bioavailability", "setting": "[9]", "value": 32, "unit": "%"}, {"measurement": "half-life", "setting": "[10]", "value": 4.4, "unit": "h"}, {"measurement": "inhibition in vivo at 3 mg/kg", "setting": "Plasmodium chabaudi [11]", "value": 22.4, "unit": "%"}, {"measurement": "IC50", "setting": "Plasmodium falciparum [12]", "value": 21, "unit": "nM"}, {"measurement": "ED90", "setting": "Plasmodium chabaudi [13]", "value": 20, "unit": "mg/kg/day"}, {"measurement": "ED99", "setting": "Plasmodium chabaudi [13]", "value": 30, "unit": "mg/kg/day"}]}
